# Measurements from ChEMBL document CHEMBL3714732, “Small molecule modulators of g protein-coupled receptor six” (2001).
# Active and inactive are the calls of the source. The calls are words filed in the database; no cut-off is given here.
# Tests used:
# [1] = target: T1, G-protein coupled receptor 6 (Homo sapiens, UniProt P46095); assay: Inverse agonist activity at rat G-protein GSalpha fused GPR6 (unknown origin) expressed in HEK293 cell membranes assessed as cAMP accumulation pre-incubated for 30 mins by microbeta plate reader based assay; assay type: functional
# T1 sequence (P46095 whole entry, the tested form may be a part): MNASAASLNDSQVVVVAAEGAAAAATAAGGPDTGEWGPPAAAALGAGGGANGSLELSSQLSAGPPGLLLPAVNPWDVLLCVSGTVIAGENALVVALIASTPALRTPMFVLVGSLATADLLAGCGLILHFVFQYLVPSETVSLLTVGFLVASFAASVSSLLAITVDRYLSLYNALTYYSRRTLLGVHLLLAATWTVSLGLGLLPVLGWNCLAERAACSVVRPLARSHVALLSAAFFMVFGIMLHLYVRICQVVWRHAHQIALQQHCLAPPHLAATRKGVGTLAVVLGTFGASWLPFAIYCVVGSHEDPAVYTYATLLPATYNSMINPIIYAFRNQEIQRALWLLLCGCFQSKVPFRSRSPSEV
# [2] = target: T1, G-protein coupled receptor 6; assay: Inverse agonist activity at rat G-protein GSalpha fused GPR6 (unknown origin) expressed in HEK293 cell membranes assessed as effect on [35S]GTPgammaS binding pre-incubated for 5 to 10 mins followed by 60 mins incubation in presence of [35S]GTPgammaS by scintillation proximity assay; assay type: functional
# Rattus norvegicus [3] = assay: Reduction in food intake in 24 hrs food-deprived Sprague-Dawley rat assessed as food intake level at 100 umol/kg, po followed by standard chow pellets feeding and measured 8 hrs post dose (reference value: 14 to 14.5g); assay type: functional
# Rattus norvegicus [4] = assay: Reduction in body weight gain in 24 hrs food-deprived Sprague-Dawley rat assessed as body weight gain level at 100 umol/kg, po followed by standard chow pellets feeding and measured 6 hrs post dose (reference value: 19.25 to 20.3g); assay type: functional
# Rattus norvegicus [5] = assay: Reduction in water intake in 24 hrs food-deprived Sprague-Dawley rat assessed as water intake level at 100 umol/kg, po followed by standard chow pellets feeding and measured 6 hrs post dose (reference value: 19.25 to 22.9g); assay type: functional
# Rattus norvegicus [6] = assay: Reduction in water intake in 24 hrs food-deprived Sprague-Dawley rat assessed as water intake level at 100 umol/kg, po followed by standard chow pellets feeding and measured 8 hrs post dose (reference value: 19g); assay type: functional
# Rattus norvegicus [7] = assay: Reduction in body weight gain in 24 hrs food-deprived Sprague-Dawley rat assessed as body weight at 100 umol/kg, po followed by standard chow pellets feeding and measured 8 hrs post dose (reference value: 19.5g); assay type: functional
# Rattus norvegicus [8] = assay: Reduction in food intake in 24 hrs food-deprived Sprague-Dawley rat assessed as food intake level per 2 hrs at 100 umol/kg, po followed by standard chow pellets feeding and measured 8 hrs post dose (reference value: 2 to 2.5g/2 hrs); assay type: functional
# Rattus norvegicus [9] = assay: Reduction in food intake in non-food-deprived Sprague-Dawley rat assessed as food intake level at 13.5 mg/kg, ip dosed 30 mins before beginning of dark cycle followed by exposure to standard chow pellets and measured 4 hrs post dose (reference value: 9g); assay type: functional
# Rattus norvegicus [10] = assay: Reduction in body weight gain in non-food-deprived Sprague-Dawley rat at 13.5 mg/kg, ip qd for 22 days measured on day-1 and day-3 post dose; assay type: functional, organism-based
# Rattus norvegicus [11] = assay: Induction of sedation in ip dosed Sprague-Dawley rat assessed as relaxed behavior after 16 hrs post dose; assay type: organism-based; details: in vivo
# Rattus norvegicus [12] = assay: Reduction in body weight gain in 24 hrs food-deprived Sprague-Dawley rat assessed body weight gain intake level at 100 nmol, icv (reference value: 12g); assay type: functional
# Rattus norvegicus [13] = assay: Induction of sedation in ip dosed Sprague-Dawley rat assessed as absence of anxiety like behavior after 16 hrs post dose; assay type: organism-based; details: in vivo
# Rattus norvegicus [14] = assay: Reduction in food intake in non-food-deprived Sprague-Dawley rat at 6.5 to 54 mg/kg, po followed by standard chow pellets feeding and measured 18 hrs post dose relative to control; assay type: functional
# Rattus norvegicus [15] = assay: Reduction in water intake in 24 hrs food-deprived Sprague-Dawley rat at 54 mg/kg, ip followed by standard chow pellets feeding and measured 6.5 hrs post dose relative to control; assay type: functional
# Rattus norvegicus [16] = organism: Rattus norvegicus; assay: Effect on motor function in Sprague-Dawley rat assessed as effect on locomotor activity for 1.5 hrs tested immediately after compound dose; assay type: organism-based; details: in vivo
# Rattus norvegicus [17] = assay: Reduction in food intake in 24 hrs food-deprived Sprague-Dawley rat at 25 to 100 nmol, icv measured after 2 hrs post dose; assay type: functional
# Rattus norvegicus [18] = assay: Reduction in food intake in 24 hrs food-deprived Sprague-Dawley rat assessed as food intake level at 27 mg/kg, po followed by standard chow pellets feeding and measured 8 hrs post dose (reference value: 14g); assay type: functional
# Rattus norvegicus [19] = assay: Reduction in food intake in 24 hrs food-deprived Sprague-Dawley rat assessed as food intake level at 54 mg/kg, ip followed by standard chow pellets feeding and measured 1.5 hrs post dose (reference value: 6g); assay type: functional
# Rattus norvegicus [20] = assay: Reduction in body weight gain in 24 hrs food-deprived Sprague-Dawley rat assessed as body weight level at 54 mg/kg, ip followed by standard chow pellets feeding and measured 6.5 hrs post dose; assay type: functional, organism-based
# Rattus norvegicus [21] = assay: Reduction in water intake in 24 hrs food-deprived Sprague-Dawley rat assessed as at 27 mg/kg, ip followed by standard chow pellets feeding and measured 6.5 hrs post dose relative to control; assay type: functional
# Rattus norvegicus [22] = assay: Reduction in body weight gain in non-food-deprived Sprague-Dawley rat at 13.5 mg/kg, ip qd for 22 days measured between day-31 and day-60 post dose; assay type: functional, organism-based
# Rattus norvegicus [23] = assay: Reduction in water intake in 24 hrs food-deprived Sprague-Dawley rat at 100 nmol, icv; assay type: functional
# Rattus norvegicus [24] = assay: Reduction in food intake in non-food-deprived Sprague-Dawley rat assessed as food intake level at 54 mg/kg, ip dosed 30 mins before beginning of dark cycle followed by exposure to standard chow pellets and measured 4 hrs post dose (reference value: 9g); assay type: functional
# Rattus norvegicus [25] = assay: Induction of sedation in non-food-deprived Sprague-Dawley rat subjected to pre-pulse of 12 db followed by 120 db pulse assessed as animal jump height level at 13.5 and 54 mg/kg, po dosed 4.5 hrs before test; assay type: organism-based; details: in vivo
# Rattus norvegicus [26] = assay: Reduction in water intake in non-food-deprived Sprague-Dawley rat at 6.75 to 54 mg/kg, ip dosed 30 mins before beginning of dark cycle followed by exposure to standard chow pellets and measured 15.5 hrs post dose; assay type: functional, organism-based
# Rattus norvegicus [27] = assay: Reduction in body weight gain in non-food-deprived Sprague-Dawley rat at 6.75 to 54 mg/kg, ip dosed 30 mins before beginning of dark cycle followed by exposure to standard chow pellets and measured 15.5 hrs post dose; assay type: functional, organism-based
# Rattus norvegicus [28] = assay: Reduction in food intake in 24 hrs food-deprived Sprague-Dawley rat dosed orally followed by standard chow pellets feeding; assay type: functional, organism-based
# Rattus norvegicus [29] = assay: Reduction in body weight gain in non-food-deprived Sprague-Dawley rat at 13.5 mg/kg, ip qd for 22 days measured between day-4 and day-31 post dose; assay type: functional, organism-based
# Rattus norvegicus [30] = assay: Reduction in body weight gain in 24 hrs food-deprived Sprague-Dawley rat assessed as body weight level at 13.5 mg/kg, ip followed by standard chow pellets feeding and measured 6.5 hrs post dose (reference value: 20g); assay type: functional
# Rattus norvegicus [31] = assay: Reduction in food intake in non-food-deprived Sprague-Dawley rat assessed as food intake level at 6.5 to 54 mg/kg, po followed by standard chow pellets feeding and measured 18 hrs post dose (reference value: 15g); assay type: functional
# Rattus norvegicus [32] = assay: Reduction in food intake in 24 hrs food-deprived Sprague-Dawley rat assessed as food intake level at 54 mg/kg, po followed by standard chow pellets feeding and measured 8 hrs post dose (reference value: 14g); assay type: functional
# Rattus norvegicus [33] = assay: Induction of sedation in non-food-deprived Sprague-Dawley rat subjected to pre-pulse of 12 db followed by 120 db pulse assessed as animal jump height level at 6.75 mg/kg, po dosed 4.5 hrs before test; assay type: organism-based; details: in vivo
# Rattus norvegicus [34] = assay: Reduction in food intake in 24 hrs food-deprived Sprague-Dawley rat assessed food intake level at 25 to 100 nmol, icv measured 3 hrs post dose (reference value: 2.5g); assay type: functional
# Rattus norvegicus [35] = assay: Reduction in water intake in 24 hrs food-deprived Sprague-Dawley rat assessed water intake level at 25 and 50 nmol, icv (reference value: 17 g); assay type: functional
# Rattus norvegicus [36] = assay: Reduction in food intake in 24 hrs food-deprived Sprague-Dawley rat assessed as food intake level at 27 mg/kg, po followed by standard chow pellets feeding and measured 2.5 hrs post dose (reference value: 6g); assay type: functional
# Rattus norvegicus [37] = assay: Reduction in food intake in 24 hrs food-deprived Sprague-Dawley rat assessed as food intake level at 54 mg/kg, po followed by standard chow pellets feeding and measured 2.5 hrs post dose (reference value: 6g); assay type: functional
# Rattus norvegicus [38] = assay: Reduction in body weight gain in 24 hrs food-deprived Sprague-Dawley rat assessed as body weight level at 27 mg/kg, ip followed by standard chow pellets feeding and measured 6.5 hrs post dose; assay type: functional, organism-based
# Rattus norvegicus [39] = assay: Reduction in food intake in 24 hrs food-deprived Sprague-Dawley rat assessed as food intake level at 54 mg/kg, ip followed by standard chow pellets feeding and measured 6.5 hrs post dose (reference value: =<14g); assay type: functional
compound,measurement,setting,value
O=C(/N=C1\SSC2=NCCN21)c1ccccc1F,IC50,[1],100 nM
same,IC50,[2],350 nM
COc1ccc(C(=O)/N=C2\SSC3=NCCN32)cc1,IC50,[1],210 nM
same,IC50,[2],830 nM
CC(C)(C)c1ccc(C(=O)/N=C2\SSC3=NCCN32)cc1,IC50,[1],370 nM
same,IC50,[2],650 nM
O=C(/N=C1\SSC2=NCCN21)c1ccc(F)cc1,Activity,Rattus norvegicus [3],7.93 g
same,Activity,Rattus norvegicus [4],4.03 g
same,IC50,[1],200 nM
same,IC50,[2],370 nM
same,Activity,Rattus norvegicus [5],8.5 g
O=C(/N=C1\SSC2=NCCN21)c1ccc2ccccc2c1,Activity,Rattus norvegicus [6],4 g
same,Activity,Rattus norvegicus [7],11 g
same,Activity,Rattus norvegicus [3],9 g
same,Activity,Rattus norvegicus [4],11 g
same,IC50,[1],170 nM
same,IC50,[2],170 nM
same,Activity,Rattus norvegicus [8],1 g
COc1cccc(C(=O)/N=C2\SSC3=NCCN32)c1,IC50,[1],400 nM
same,IC50,[2],310 nM
CSc1ncccc1C(=O)NC(=S)N1CCNC1=S,IC50,[2],200000 nM
O=C(NC(=S)N1CCNC1=S)c1ccno1,IC50,[1],5830 nM
same,IC50,[2],2430 nM
Cc1onc(-c2ccccc2)c1C(=O)/N=C1\SSC2=NCCN21,IC50,[2],2460 nM
O=C(NC(=S)N1CCNC1=S)c1ccc2ccccc2c1,Activity,Rattus norvegicus [6],19 g
same,Activity,Rattus norvegicus [7],19.5 g
same,Activity,Rattus norvegicus [8],2.5 g
O=C(/N=C1\SSC2=NCCN21)c1ccc(C(F)(F)F)cc1,IC50,[1],170 nM
same,IC50,[2],570 nM
O=C(/N=C1\SSC2=NCCN21)c1ccco1,IC50,[1],110 nM
same,IC50,[2],250 nM
O=C(/N=C1\SSC2=NCCN21)c1ccc(Cl)cc1,Activity,Rattus norvegicus [3],9.88 g
same,Activity,Rattus norvegicus [4],11.4 g
same,IC50,[1],270 nM
same,IC50,[2],640 nM
same,Activity,Rattus norvegicus [5],18.5 g
O=C(/N=C1\SSC2=NCCN21)c1cnn(-c2ccc(Cl)cc2)c1C(F)(F)F,IC50,[2],190 nM
O=C(/N=C1\SSC2=NCCN21)c1cccs1,Activity,Rattus norvegicus [9],4 g
same,Activity,Rattus norvegicus [10],Active
same,Activity,Rattus norvegicus [11],Toxic
same,Activity,Rattus norvegicus [12],5 g
same,Activity,Rattus norvegicus [13],Toxic
same,fold change (FC),Rattus norvegicus [14],3
same,fold change (FC),Rattus norvegicus [15],5
same,Activity,Rattus norvegicus [16],Non-toxic
same,fold change (FC),Rattus norvegicus [17],6
same,Activity,Rattus norvegicus [18],8 g
same,Activity,Rattus norvegicus [19],3 g
same,Activity,Rattus norvegicus [20],Active
same,fold change (FC),Rattus norvegicus [21],4
same,Activity,Rattus norvegicus [22],Active
same,inhibition (INH),Rattus norvegicus [23],>=50%
same,Activity,Rattus norvegicus [24],2 g
same,Activity,Rattus norvegicus [25],Toxic
same,Activity,Rattus norvegicus [26],Active
same,Activity,Rattus norvegicus [7],6 g
same,Activity,Rattus norvegicus [27],Active
same,Activity,Rattus norvegicus [28],Dose-dependent effect
same,Activity,Rattus norvegicus [3],8.1 g
same,Activity,Rattus norvegicus [29],Active
same,Activity,Rattus norvegicus [30],11 g
same,IC50,[1],100 nM
same,Activity,Rattus norvegicus [31],<=5 g
same,IC50,[2],420 nM
same,Activity,Rattus norvegicus [32],6 g
same,Activity,Rattus norvegicus [33],Non-toxic
same,Activity,Rattus norvegicus [34],<=1 g
same,Activity,Rattus norvegicus [35],17 g
same,Activity,Rattus norvegicus [36],6 g
same,Activity,Rattus norvegicus [37],4 g
same,Activity,Rattus norvegicus [38],Active
same,Activity,Rattus norvegicus [39],4 g
O=C(/N=C1\SSC2=NCCN21)c1cccnc1,IC50,[1],133 nM
same,IC50,[2],670 nM
O=C(NC(=S)N1CCNC1=S)c1ccccc1F,IC50,[1],200000 nM
O=C(/N=C1\SSC2=NCCN21)c1ccno1,IC50,[1],100 nM
same,IC50,[2],330 nM
O=C(NC(=S)N1CCNC1=S)c1cccc2ccccc12,IC50,[2],200000 nM
O=C(NC(=S)N1CCNC1=S)c1cnn(-c2ccc(Cl)cc2)c1C(F)(F)F,IC50,[1],200000 nM
same,IC50,[2],200000 nM
O=C(/N=C1\SSC2=NCCN21)c1ccc(F)cc1F,IC50,[1],190 nM
same,IC50,[2],410 nM
Cc1cccc(C(=O)/N=C2\SSC3=NCCN32)c1,IC50,[1],140 nM
same,IC50,[2],790 nM
Cc1noc(C)c1C(=O)/N=C1\SSC2=NCCN21,IC50,[1],350 nM
same,IC50,[2],460 nM
O=C(/N=C1\SSC2=NCCN21)c1cccc(F)c1,Activity,Rattus norvegicus [6],10 g
same,Activity,Rattus norvegicus [7],9 g
same,Activity,Rattus norvegicus [3],9.1 g
same,Activity,Rattus norvegicus [4],9.5 g
same,IC50,[1],240 nM
same,IC50,[2],220 nM
same,Activity,Rattus norvegicus [5],9.5 g
same,Activity,Rattus norvegicus [8],1 g
CC(C)(C)c1ccc(C(=O)NC(=S)N2CCNC2=S)cc1,IC50,[2],200000 nM
O=C(/N=C1\SSC2=NCCN21)c1cc2ccccc2s1,Activity,Rattus norvegicus [6],19 g
same,Activity,Rattus norvegicus [7],14 g
same,Activity,Rattus norvegicus [3],9.6 g
same,IC50,[1],190 nM
same,IC50,[2],130 nM
same,Activity,Rattus norvegicus [5],20 g
same,Activity,Rattus norvegicus [8],1 g
